Experimental data as given in patent US20250082914A1 (priority 2022, published 2025).

How the values were obtained:
[1] = In vitro drug release, USP device type II, SGF then SIF; format: physicochemical; settings: after switch from SGF pH 1.2 (30 min) to SIF pH 6.8; 37° C., 100 rpm; 8 mm device, 20 mg desmopressin, 40 mg PVP, enteric capsule
Method: The temperature was set at 37° C., and the rotating speed was at 100 rpm. Aliquots of 1 mL were sampled at the predetermined time points and the sampled volume was replaced with fresh SGF or SIF buffer. Quantification was carried by HPLC (VWR Hitachi Chromaster system with 5160 pump, 5260 autosampler, 5310 column oven and 5430 diode array detector, VWR International, Radnor, PA) with the UV wavelength set at 280 nm. […] At the intestinal pH, desmopressin started being released when the solvent was switched to SIF and was completely released within about 20 minutes. […] The drug release kinetics is also controlled with the polymeric excipient.

[2] = in the presence of permeation enhancers; cited from earlier work

| time to complete release of desmopressin [1] [min] | Molecule | oral bioavailability [2] |
| --- | --- | --- |
| ≤ 20 | NC(=O)CC[C@@H]1NC(=O)[C@H](Cc2ccccc2)NC(=O)[C@H](Cc2ccc(O)cc2)NC(=O)CCSSC[C@@H](C(=O)N2CCC[C@H]2C(=O)N[C@H](CCCN=C(N)N)C(=O)NCC(N)=O)NC(=O)[C@H](CC(N)=O)NC1=O [desmopressin] |  |
|  | C[C@@H](O)[C@@H]1NC(=O)[C@H](CCCCN)NC(=O)[C@@H](Cc2c[nH]c3ccccc23)NC(=O)[C@H](Cc2ccccc2)NC(=O)[C@@H](NC(=O)[C@H](N)Cc2ccccc2)CSSC[C@@H](C(=O)N[C@H](CO)[C@@H](C)O)NC1=O [octreotride] | 0.5-1% |
|  | semaglutide | ~1% |
